In PubChem BioAssay (NCI):
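Compound exposure: 48 hours, 5 concentrations, 96-well plates. Abbreviation: GI50, concentration required for 50% inhibition of growth. TGI marks complete inhibition of growth.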

Test system: SR leukemia
Test: inhibition of tumour cell growth, NCI panel, 48 h

Row | SMILES | GI50 | TGI
1 | O=C(Cc1ccc(/C=C/C(=O)c2ncc[nH]2)cc1)Nc1cc(F)c(F)c(F)c1 | 2.16 µM | 13.3 µM

Test system: SW-620 colon
Test: inhibition of tumour cell growth, NCI panel, 48 h

Row | SMILES | TGI | GI50
2 | CN(CC(=O)O)c1ncc2c(n1)-c1ccccc1SC2 | > 100 µM | –
3 | CC(=O)Nc1ccc(C(=O)NN2C(=O)CSC2c2ccc([N+](=O)[O-])cc2)cc1 (stereo not drawn) | > 100 µM | –
4 | CC(=O)c1ccc(NCc2cc(O)ccc2O)cc1 | > 100 µM | –
5 | CN(C(=O)C1=CCC2(CC1)OCCO2)c1ccccc1OS(=O)(=O)C(F)(F)F | > 100 µM | –
6 | O=C(Cc1ccc(/C=C/C(=O)c2ncc[nH]2)cc1)Nc1cc(F)c(F)c(F)c1 | 6.79 µM | 1.88 µM

Test system: T-47D breast
Test: inhibition of tumour cell growth, NCI panel, 48 h

Row | SMILES | TGI | GI50
7 | CC(=O)Nc1ccc(C(=O)NN2C(=O)CSC2c2ccc([N+](=O)[O-])cc2)cc1 (stereo not drawn) | > 100 µM | –
8 | CC(=O)c1ccc(NCc2cc(O)ccc2O)cc1 | 63.1 µM | –
9 | CN(C(=O)C1=CCC2(CC1)OCCO2)c1ccccc1OS(=O)(=O)C(F)(F)F | > 100 µM | –
10 | CC(C)(C)NC(NC(C)(C)C)=C(/C=C(/Cl)[N+](=O)[O-])[N+](=O)[O-] | > 100 µM | –
11 | O=C(Cc1ccc(/C=C/C(=O)c2ncc[nH]2)cc1)Nc1cc(F)c(F)c(F)c1 | 10.5 µM | 2.91 µM

Test system: TK-10 renal
Test: inhibition of tumour cell growth, NCI panel, 48 h

Row | SMILES | TGI | GI50
12 | CN(CC(=O)O)c1ncc2c(n1)-c1ccccc1SC2 | > 100 µM | –
13 | CC(=O)Nc1ccc(C(=O)NN2C(=O)CSC2c2ccc([N+](=O)[O-])cc2)cc1 (stereo not drawn) | > 100 µM | –
14 | CC(=O)c1ccc(NCc2cc(O)ccc2O)cc1 | 29 µM | –
15 | CC(C)(C)NC(NC(C)(C)C)=C(/C=C(/Cl)[N+](=O)[O-])[N+](=O)[O-] | > 100 µM | –
16 | O=C(Cc1ccc(/C=C/C(=O)c2ncc[nH]2)cc1)Nc1cc(F)c(F)c(F)c1 | 10.1 µM | 4.51 µM

Test system: U251 CNS
Test: inhibition of tumour cell growth, NCI panel, 48 h

Row | SMILES | TGI | GI50
17 | CN(CC(=O)O)c1ncc2c(n1)-c1ccccc1SC2 | > 100 µM | –
18 | CC(=O)Nc1ccc(C(=O)NN2C(=O)CSC2c2ccc([N+](=O)[O-])cc2)cc1 (stereo not drawn) | > 100 µM | –
19 | CC(=O)c1ccc(NCc2cc(O)ccc2O)cc1 | 54.5 µM | –
20 | CN(C(=O)C1=CCC2(CC1)OCCO2)c1ccccc1OS(=O)(=O)C(F)(F)F | > 100 µM | –
21 | CC(C)(C)NC(NC(C)(C)C)=C(/C=C(/Cl)[N+](=O)[O-])[N+](=O)[O-] | > 100 µM | –
22 | O=C(Cc1ccc(/C=C/C(=O)c2ncc[nH]2)cc1)Nc1cc(F)c(F)c(F)c1 | 3.8 µM | 0.992 µM

Test system: UACC-257 melanoma
Test: inhibition of tumour cell growth, NCI panel, 48 h

Row | SMILES | TGI | GI50
23 | CN(CC(=O)O)c1ncc2c(n1)-c1ccccc1SC2 | > 100 µM | –
24 | CC(=O)Nc1ccc(C(=O)NN2C(=O)CSC2c2ccc([N+](=O)[O-])cc2)cc1 (stereo not drawn) | > 100 µM | –
25 | CC(=O)c1ccc(NCc2cc(O)ccc2O)cc1 | 33.9 µM | –
26 | CN(C(=O)C1=CCC2(CC1)OCCO2)c1ccccc1OS(=O)(=O)C(F)(F)F | > 100 µM | –
27 | CC(C)(C)NC(NC(C)(C)C)=C(/C=C(/Cl)[N+](=O)[O-])[N+](=O)[O-] | > 100 µM | –
28 | O=C(Cc1ccc(/C=C/C(=O)c2ncc[nH]2)cc1)Nc1cc(F)c(F)c(F)c1 | 11.9 µM | 4.49 µM

Test system: UACC-62 melanoma
Test: inhibition of tumour cell growth, NCI panel, 48 h

Row | SMILES | TGI | GI50
29 | CN(CC(=O)O)c1ncc2c(n1)-c1ccccc1SC2 | > 100 µM | –
30 | CC(=O)Nc1ccc(C(=O)NN2C(=O)CSC2c2ccc([N+](=O)[O-])cc2)cc1 (stereo not drawn) | > 100 µM | –
31 | CC(=O)c1ccc(NCc2cc(O)ccc2O)cc1 | 29.8 µM | –
32 | CN(C(=O)C1=CCC2(CC1)OCCO2)c1ccccc1OS(=O)(=O)C(F)(F)F | > 100 µM | –
33 | CC(C)(C)NC(NC(C)(C)C)=C(/C=C(/Cl)[N+](=O)[O-])[N+](=O)[O-] | > 100 µM | –
34 | O=C(Cc1ccc(/C=C/C(=O)c2ncc[nH]2)cc1)Nc1cc(F)c(F)c(F)c1 | 8.91 µM | 3.71 µM

Test system: UO-31 renal
Test: inhibition of tumour cell growth, NCI panel, 48 h

Row | SMILES | TGI | GI50
35 | CN(CC(=O)O)c1ncc2c(n1)-c1ccccc1SC2 | > 100 µM | –
36 | CC(=O)Nc1ccc(C(=O)NN2C(=O)CSC2c2ccc([N+](=O)[O-])cc2)cc1 (stereo not drawn) | > 100 µM | –
37 | CC(=O)c1ccc(NCc2cc(O)ccc2O)cc1 | 23.9 µM | –
38 | CN(C(=O)C1=CCC2(CC1)OCCO2)c1ccccc1OS(=O)(=O)C(F)(F)F | > 100 µM | –
39 | CC(C)(C)NC(NC(C)(C)C)=C(/C=C(/Cl)[N+](=O)[O-])[N+](=O)[O-] | > 100 µM | –
40 | O=C(Cc1ccc(/C=C/C(=O)c2ncc[nH]2)cc1)Nc1cc(F)c(F)c(F)c1 | 6.56 µM | 3.36 µM
